Values after ≈ are worked out from the molar mass of the structure shown. Read-outs that look alike come from different tables or passages of the source.
Experiments:
[1] = Solubility of diazepam or clofibrate complex with G2 βCD versus drug alone
Excerpt: The solubility of the complex was compared with that of the drug alone.

[2] = water
Experimental: (§1) The aqueous solution was added to the above ethyl alcohol solution with stirring. The solution thus obtained was lyophilized to obtain a powder.
(§2) After 4 hours, the mixture was filtered through a filter having pore size of 0.22 μm.

[3] = Stability of powders at 40° C. for 2 weeks (residual amount of Compound A by HPLC); type: physicochemical; settings: powder storage, 336 h
Experimental: The residual amounts of Compound A was determined by HPLC.

[4] = water; remark: listed apart in the source
Experimental: as §1, §2

Structure (SMILES) | solubility [1] [µg/mL] | Comparison of solubilities (solubility concentration of Compound A) [2] [µg/mL] | Stability, Residual rate [3] [%] | Comparison of solubilities (solubility concentration of Compound A) [4] [µg/mL]
CCOC(=O)C(C)(C)Oc1ccc(Cl)cc1 [Clofibrate, clofibrate] | 36 (≈ 148 µM) | – | – | –
CO[C@@H]1[C@H](OC(=O)NC(=O)CCl)CC[C@]2(CO2)[C@H]1[C@@]1(C)O[C@@H]1CC=C(C)C [Compound A, 6-O-(N-chloroacetylcarbamoyl)fumagillol] | – | 1700 | 81.4 | 1700
